{"source": "patent US9012431B2", "about": "“Boron-containing small molecules as anti-inflammatory agents” (Anacor Pharmaceuticals, Inc., priority 2008, dated 2015)", "key": {"IL-5": {"test_system": "IL-5", "experiment": "Cytokine assay, IL-5 release from PBMC", "type": "cell-based", "conditions": "human PBMC, 20 ug/mL PHA, supernatant at 48 hours", "outline": "(§1)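 Human PBMC (frozen, thawed), RPMI 1640 + 10% FBS; compound at 10, 1, 0.1, 0.01 μM from 10 mM DMSO stock, n=3; cytokine release read.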"}, "BALB/c male mice": {"test_system": "BALB/c male mice", "experiment": "Oxazolone Induced Mouse Ear Edema Model", "type": "in vivo", "conditions": "for inhibition in vivo at 1 mg: 1 mg/ear × 2 topical; for inhibition in vivo at 0.2 mg: 0.2 mg/ear × 2 topical", "experimental": "2. In Vivo Anti-Inflammation Activity in Oxazolone Induced Mouse Ear Edema Model\nGroups of 5 BALB/c male mice weighing 23±2 g were used. The preshaved abdomens of test animals were sensitized by application of 100 μl, of 1.5% oxazolone solution dissolved in acetone. Seven days after the initial sensitization, test substances, as well as vehicle (acetone:ethanol/1:1, 20 μL/ear) were each administered topically to the anterior and posterior surfaces of the right ear 30 minutes before, and 15 minutes after, challenge by a second application of oxazolone (1% in acetone, […]) via topical route. As a positive control, indomethacin (0.3 mg/ear×2) was administered topically using the same treatment regime as for the test compounds. Twenty-four hours after the second application of oxazolone, the ear thickness of each mouse was measured with a Dyer model micrometer gauge. A 30 percent or more inhibition in ear swelling relative to the vehicle control was considered significant and indicated possible anti-inflammatory activity."}, "IL-10": {"test_system": "IL-10", "experiment": "Cytokine assay, IL-10 release from PBMC", "type": "cell-based", "conditions": "human PBMC, 20 ug/mL PHA, supernatant at 48 hours", "outline": "as §1"}, "IL-2": {"test_system": "IL-2", "experiment": "Cytokine assay, IL-2 release from PBMC", "type": "cell-based", "conditions": "human PBMC, 20 ug/mL PHA, supernatant at 24 hours", "outline": "as §1"}, "TNF-α": {"test_system": "TNF-α", "experiment": "Cytokine assay, TNF-α release from PBMC", "type": "cell-based", "conditions": "Homo sapiens, PBMC, 24 h, 1 μg/mL LPS, supernatant at 24 hours", "outline": "as §1"}, "[1]": {"test_system": "T1, PDE4 partially purified from human U-937 myeloid leukemia cells", "T1 construct": "PDE4 partially purified from human U-937 myeloid leukemia cells was used", "experiment": "PDE4 Assay (enzyme from U-937 cells, [3H]cAMP)", "type": "biochemical", "conditions": "PDE4 from U-937 cells, Tris buffer pH 7.5, 20 minutes at 25° C."}, "IFN-γ": {"test_system": "IFN-γ", "experiment": "Cytokine assay, IFN-γ release from PBMC", "type": "cell-based", "conditions": "human PBMC, 20 ug/mL PHA, supernatant at 24 hours", "outline": "as §1"}, "[2]": {"test_system": "CD-1 (Crl.) derived male mice", "experiment": "Phorbol Ester Induced Mouse Ear Edema Model", "type": "in vivo", "conditions": "topical, 6 h; for inhibition in vivo at 1 mg: 1 mg/ear × 2 topical; for inhibition in vivo at 0.2 mg: 0.2 mg/ear × 2 topical", "experimental": "1. In Vivo Anti-Inflammation Activity in Phorbol Ester Induced Mouse Ear Edema Model\n[…] Dexamethasone (1 mg/ear×2) used as the positive control was administered topically to test animals using the same application schedule. Ear swelling was then measured by a Dyer model micrometer gauge at 6 hours after PMA application as an index of inflammation. Percent inhibition was calculated according to the formula: [(Ic−It)/Ic]×100%, where Ic and It refer to increase of ear thickness (mm) in control and treated mice, respectively."}, "[3]": {"conditions": "Acetone:Ethanol/1:1, ear thickness 24 hours after second oxazolone application"}, "[4]": {"conditions": "Acetone:Ethanol/1:1, ear swelling 6 hours after PMA"}}}
{"smiles": "N#Cc1ccc(Oc2ccc3c(c2)COB3O)cc1C(F)(F)F", "note": "[D5, 5-(4-Cyano-3-trifluoromethylphenoxy)-1,3-dihydro-1-hydroxy-2,1-benzoxaborole]", "values": [{"measurement": "IC50", "setting": "IL-5", "result": "< 1", "unit": "µM"}, {"measurement": "inhibition in vivo at 1 mg", "setting": "BALB/c male mice; [3]", "result": "30 to 40", "unit": "%"}, {"measurement": "IC50", "setting": "IL-10", "result": "> 10", "unit": "µM"}, {"measurement": "IC50", "setting": "IL-2", "result": "1 to 4", "unit": "µM"}, {"measurement": "IC50", "setting": "TNF-α", "result": "< 1", "unit": "µM"}, {"measurement": "IC50", "setting": "[1]", "result": "< 1", "unit": "µM"}, {"measurement": "IC50", "setting": "IFN-γ", "result": "< 1", "unit": "µM"}, {"measurement": "inhibition in vivo at 1 mg", "setting": "[2]; [4]", "result": "30 to 60", "unit": "%"}]}
{"smiles": "COC(=O)c1cc(Oc2ccc3c(c2)COB3O)ccc1C#N", "note": "[D6, 5-(4-Cyano-3-methoxycarbonylphenoxy)-1,3-dihydro-1-hydroxy-2,1-benzoxaborole]", "values": [{"measurement": "IC50", "setting": "IL-5", "result": "4 to 10", "unit": "µM"}, {"measurement": "inhibition in vivo at 0.2 mg", "setting": "BALB/c male mice; [3]", "result": "< 20", "unit": "%"}, {"measurement": "inhibition in vivo at 1 mg", "setting": "BALB/c male mice; [3]", "result": "< 20", "unit": "%"}, {"measurement": "IC50", "setting": "IL-10", "result": "4 to 10", "unit": "µM"}, {"measurement": "IC50", "setting": "IL-2", "result": "< 1", "unit": "µM"}, {"measurement": "IC50", "setting": "TNF-α", "result": "< 1", "unit": "µM"}, {"measurement": "IC50", "setting": "[1]", "result": "< 1", "unit": "µM"}, {"measurement": "IC50", "setting": "IFN-γ", "result": "< 1", "unit": "µM"}, {"measurement": "inhibition in vivo at 0.2 mg", "setting": "[2]; [4]", "result": "< 30", "unit": "%"}, {"measurement": "inhibition in vivo at 1 mg", "setting": "[2]; [4]", "result": "30 to 60", "unit": "%"}]}
{"smiles": "COC(=O)c1cc(Oc2ccc3c(c2)COB3O)ccc1C(N)=O", "note": "[D7, 5-(4-Carbamoyl-3-methoxycarbonylphenoxy)-1,3-dihydro-1-hydroxy-2,1-benzoxaborole]", "values": [{"measurement": "IC50", "setting": "IL-5", "result": "< 1", "unit": "µM"}, {"measurement": "inhibition in vivo at 1 mg/kg", "setting": "BALB/c male mice; 1 mg/kg × 2 topical, Acetone:Ethanol/1:1, ear thickness 24 hours after second oxazolone application", "result": "< 20", "unit": "%"}, {"measurement": "IC50", "setting": "IL-10", "result": "< 1", "unit": "µM"}, {"measurement": "IC50", "setting": "IL-2", "result": "< 1", "unit": "µM"}, {"measurement": "IC50", "setting": "TNF-α", "result": "< 1", "unit": "µM"}, {"measurement": "IC50", "setting": "[1]", "result": "< 1", "unit": "µM"}, {"measurement": "IC50", "setting": "IFN-γ", "result": "< 1", "unit": "µM"}, {"measurement": "inhibition in vivo at 1 mg/kg", "setting": "[2]; 1 mg/kg × 2 topical, Acetone:Ethanol/1:1, ear swelling 6 hours after PMA", "result": "< 30", "unit": "%"}]}
{"smiles": "COc1cc(Oc2ccc3c(c2)COB3O)ccc1C#N", "note": "[D12, 5-(4-Cyano-3-methoxyphenoxy)-1,3-dihydro-1-hydroxy-2,1-benzoxaborole]", "values": [{"measurement": "IC50", "setting": "IL-5", "result": "1 to 4", "unit": "µM"}, {"measurement": "inhibition in vivo at 0.2 mg", "setting": "BALB/c male mice; [3]", "result": "< 20", "unit": "%"}, {"measurement": "inhibition in vivo at 1 mg", "setting": "BALB/c male mice; [3]", "result": "30 to 40", "unit": "%"}, {"measurement": "IC50", "setting": "IL-10", "result": "< 1", "unit": "µM"}, {"measurement": "IC50", "setting": "IL-2", "result": "< 1", "unit": "µM"}, {"measurement": "IC50", "setting": "TNF-α", "result": "< 1", "unit": "µM"}, {"measurement": "IC50", "setting": "[1]", "result": "< 1", "unit": "µM"}, {"measurement": "IC50", "setting": "IFN-γ", "result": "< 1", "unit": "µM"}, {"measurement": "inhibition in vivo at 0.2 mg", "setting": "[2]; [4]", "result": "< 30", "unit": "%"}, {"measurement": "inhibition in vivo at 1 mg", "setting": "[2]; [4]", "result": "30 to 60", "unit": "%"}]}
{"smiles": "COc1cc(C#N)ccc1Oc1ccc2c(c1)COB2O", "note": "[D15, 5-(4-Cyano-2-methoxyphenoxy)-1,3-dihydro-1-hydroxy-2,1-benzoxaborole]", "values": [{"measurement": "inhibition in vivo at 1 mg", "setting": "BALB/c male mice; [3]", "result": "40 to 60", "unit": "%"}, {"measurement": "IC50", "setting": "IL-2", "result": "< 1", "unit": "µM"}, {"measurement": "IC50", "setting": "TNF-α", "result": "< 1", "unit": "µM"}, {"measurement": "IC50", "setting": "[1]", "result": "< 1", "unit": "µM"}, {"measurement": "IC50", "setting": "IFN-γ", "result": "< 1", "unit": "µM"}, {"measurement": "inhibition in vivo at 1 mg", "setting": "[2]; [4]", "result": "30 to 60", "unit": "%"}]}
{"smiles": "CCOC(=O)COc1cc(C#N)ccc1Oc1ccc2c(c1)COB2O", "note": "[D16, 5-[4-Cyano-2-(ethoxycarbonylmethoxy)phenoxy]-1,3-dihydro-1-hydroxy-2,1-benzoxaborole]", "values": [{"measurement": "inhibition in vivo at 3 mg", "setting": "BALB/c male mice; 3 mg/ear × 2 topical, 95% Ethanol, ear thickness 24 hours after second oxazolone application", "result": "< 20", "unit": "%"}, {"measurement": "IC50", "setting": "IL-2", "result": "1 to 4", "unit": "µM"}, {"measurement": "IC50", "setting": "TNF-α", "result": "< 1", "unit": "µM"}, {"measurement": "IC50", "setting": "[1]", "result": "< 1", "unit": "µM"}, {"measurement": "IC50", "setting": "IFN-γ", "result": "< 1", "unit": "µM"}, {"measurement": "inhibition in vivo at 0.2 mg", "setting": "[2]; [4]", "result": "60 to 90", "unit": "%"}, {"measurement": "inhibition in vivo at 1 mg", "setting": "[2]; [4]", "result": "90 to 100", "unit": "%"}]}
{"smiles": "N#Cc1ccc(Oc2ccc3c(c2)COB3O)cc1OC1CCCC1", "note": "[D37, 2-Cyclopentyloxy-4-(1-hydroxy-1,3-dihydro-benzo[c][1,2]oxaborol-5-yloxy)-benzonitrile]", "values": [{"measurement": "IC50", "setting": "IL-5", "result": "< 1", "unit": "µM"}, {"measurement": "inhibition in vivo at 1 mg", "setting": "BALB/c male mice; [3]", "result": "< 20", "unit": "%"}, {"measurement": "IC50", "setting": "IL-10", "result": "< 1", "unit": "µM"}, {"measurement": "IC50", "setting": "IL-2", "result": "< 1", "unit": "µM"}, {"measurement": "IC50", "setting": "TNF-α", "result": "< 1", "unit": "µM"}, {"measurement": "IC50", "setting": "[1]", "result": "< 1", "unit": "µM"}, {"measurement": "IC50", "setting": "IFN-γ", "result": "< 1", "unit": "µM"}, {"measurement": "inhibition in vivo at 1 mg", "setting": "[2]; [4]", "result": "60 to 90", "unit": "%"}, {"measurement": "inhibition in vivo at 3 mg", "setting": "[2]; 3 mg/ear × 2 topical, 95% Ethanol, ear swelling 6 hours after PMA", "result": "60 to 90", "unit": "%"}]}
